Literature values in US20230200430A1, “ORAL PRODUCTS WITH HIGH-DENSITY LOAD” (NICOVENTURES TRADING LIMITED, priority 2021, published 2023).

Conditions: qualitative statement

Compound	solubility in water / aqueous environment
CC(/C=C/C=C(C)/C=C/C(=O)O)=C\C=C\C=C(C)\C=C\C=C(C)\C=C\C(=O)O (stereo in doubt) [norbixin, (2E,4E,6E,8E,10E,12E,14E,16E,18E)-4,8,13,17-tetramethylicosa-2,4,6,8,10,12,14,16,18-nonaenedioic acid]	water soluble
COC(=O)/C=C/C(C)=C\C=C\C(C)=C\C=C\C=C(C)\C=C\C=C(C)\C=C\C(=O)O [Bixin]	insoluble in water
C=C(C)[C@@H]1CCC(C)=C[C@H]1c1c(O)cc(CCCCC)cc1O [CBD, cannabidiol, reference compound]	insoluble in an aqueous environment
